System: hypertensive subjects
Assay: 24-hour ambulatory blood pressure monitoring (ABPM), incl. nighttime dip
Format: in vivo, human
Details: Part 1
Protocol: Ambulatory blood pressure monitoring was accomplished with an ambulatory blood pressure monitoring device that consists of a blood pressure cuff worn on a subject's arm attached to a small recording device that is typically attached to the subject's belt or waistband.
The ABPM device is worn for 24 hours. Throughout that period, the device records the subject's blood pressure at regular intervals, during the subject's routine daily activities and while they are sleeping. The ABPM thus provides a complete record of the subject's blood pressure over a 24-hour period.
24-hour ABPM was measured in the clinic at baseline and Study Week 7. If, for any reason, the ABPM procedure was deemed a failure at the end of Study Week 7, it may have been repeated at Study Week 8 and therefore no imputation was employed regardless of use of rescue medications. Additionally, ABPM was also collected at the end of Study Week 4 in Part 2. If a repeat test was performed, it supersedes the original test results for that visit.
Specific derived variables based on ABPM measurements include mean 24-hour, mean Daytime, and mean Nighttime of SBP, DBP, and heart rate.
Change from baseline to Week 7 in 24-hour mean SBP (and DBP) based on ABPM will be analyzed using an ANCOVA with a term for treatment group and a baseline mean 24-hour value as a covariate.
The nighttime dip is defined as
100%×(mean daytime SBP−mean nighttime SBP)/mean daytime SBP
It is expressed as a percentage and is summarized by treatment group and visit using descriptive statistics. In addition, the number and percentage of subjects with nighttime dip in each of the dipper categories (Bloomfield & Park, 2015) is presented by treatment group and visit. The categories are: • (a) <10% • (b) 10-20% inclusive • (c) >20%
Secondary endpoints of this study were: • (a) Change in 24-hour ambulatory blood pressure monitoring (ABPM) parameters (systolic and diastolic) from baseline to the end of Study Week 7. • (b) Change in office-measured SBP from baseline to the end of Study Weeks 1, 2, 3, 4, 5, 6, and 7. • (c) Change in office-measured diastolic blood pressure (DBP) from baseline to the end of Study Weeks 1, 2, 3, 4, 5, 6, 7, and 8. • (d) Proportion of subjects who achieve office-measured BP of ≤130/80 mm Hg by the end of Study Week 8.

[1] = 25 mg BID, End of Treatment, FAS post-hoc

CC(=O)N[C@H]1CC[C@H](NC(=O)CN2CCN(c3nncc(-c4ccc(C)cc4)n3)CC2)CC1 [Compound A HBr]
Daytime Mean SBP (ABPM), Mean (SD) (12.5 mg QD, EoT, FAS): 141.13 (15.62) mmHg | Nighttime Mean DBP (ABPM), Mean (SD) (12.5 mg QD, EoT, FAS): 74.29 (9.59) mmHg | Nighttime Mean SBP (ABPM), Mean (SD) (12.5 mg QD, EoT, FAS): 132.00 (18.11) mmHg | Subjects with nighttime dip 10-20% in 24-hour systolic ABPM (12.5 mg QD, EoT, FAS): 5 (35.7) n (%) | Subjects with nighttime dip <10% in 24-hour systolic ABPM (12.5 mg QD, EoT, FAS): 9 (64.3) n (%) | Subjects with nighttime dip >20% in 24-hour systolic ABPM (12.5 mg QD, EoT, FAS): 0 n (%) | 24-hr Mean DBP (ABPM) CFB to EoT, Mean (SD) (12.5 mg QD, FAS): −2.27 (8.35) mmHg | 24-hr Mean MAP (ABPM) CFB to EoT, Mean (SD) (12.5 mg QD, FAS): −3.73 (12.21) mmHg | 24-hr Mean SBP (ABPM) CFB to EoT, Mean (SD) (12.5 mg QD, FAS): −5.20 (16.55) mmHg | Daytime Mean DBP (ABPM) CFB to EoT, Mean (SD) (12.5 mg QD, FAS): −2.60 (8.43) mmHg | Daytime Mean SBP (ABPM) CFB to EoT, Mean (SD) (12.5 mg QD, FAS): −4.80 (15.10) mmHg | Nighttime Mean DBP (ABPM) CFB to EoT, Mean (SD) (12.5 mg QD, FAS): −3.21 (9.55) mmHg | Nighttime Mean SBP (ABPM) CFB to EoT, Mean (SD) (12.5 mg QD, FAS): −5.43 (20.36) mmHg | LSM Δ with Placebo, 24-hr DBP (ABPM, ANCOVA) [1]: −5.13 mmHg | LSM Δ with Placebo, 24-hr Mean MAP (ABPM, ANCOVA) [1]: −6.68 mmHg | LSM Δ with Placebo, 24-hr SBP (ABPM, ANCOVA) [1]: −8.04 mmHg | LSM Δ with Placebo, Daytime Mean DBP (ABPM, ANCOVA) [1]: −5.64 mmHg | LSM Δ with Placebo, Daytime Mean SBP (ABPM, ANCOVA) [1]: −8.76 mmHg | LSM Δ with Placebo, Mean Central DBP (ABPM, ANCOVA) [1]: −7.36 mmHg | LSM Δ with Placebo, Mean Central Mean BP (ABPM, ANCOVA) [1]: −8.87 mmHg | LSM Δ with Placebo, Mean Central SBP (ABPM, ANCOVA) [1]: −10.19 mmHg | LSM Δ with Placebo, Nighttime Mean DBP (ABPM, ANCOVA) [1]: −3.28 mmHg | LSM Δ with Placebo, Nighttime Mean SBP (ABPM, ANCOVA) [1]: −4.66 mmHg | 24-hr Mean DBP (ABPM), Mean (SD) (25 mg BID, EoT, FAS): 76.50 (10.59) mmHg | 24-hr Mean MAP (ABPM), Mean (SD) (25 mg BID, EoT, FAS): 103.10 (10.92) mmHg | 24-hr Mean SBP (ABPM), Mean (SD) (25 mg BID, EoT, FAS): 129.69 (12.57) mmHg | Daytime Mean DBP (ABPM), Mean (SD) (25 mg BID, EoT, FAS): 79.04 (10.41) mmHg | Daytime Mean SBP (ABPM), Mean (SD) (25 mg BID, EoT, FAS): 132.58 (13.62) mmHg | Nighttime Mean DBP (ABPM), Mean (SD) (25 mg BID, EoT, FAS): 71.38 (11.94) mmHg | Nighttime Mean SBP (ABPM), Mean (SD) (25 mg BID, EoT, FAS): 123.92 (12.17) mmHg | Subjects with nighttime dip 10-20% in 24-hour systolic ABPM (25 mg BID, EoT, FAS): 4 (16.7) n (%) | Subjects with nighttime dip <10% in 24-hour systolic ABPM (25 mg BID, EoT, FAS): 19 (79.2) n (%) | Subjects with nighttime dip >20% in 24-hour systolic ABPM (25 mg BID, EoT, FAS): 1 (4.2) n (%) | 24-hr Mean DBP (ABPM) CFB to EoT, Mean (SD) (25 mg BID, FAS): −6.12 (9.77) mmHg | 24-hr Mean MAP (ABPM) CFB to EoT, Mean (SD) (25 mg BID, FAS): −7.42 (12.49) mmHg | 24-hr Mean SBP (ABPM) CFB to EoT, Mean (SD) (25 mg BID, FAS): −8.73 (15.67) mmHg | Daytime Mean DBP (ABPM) CFB to EoT, Mean (SD) (25 mg BID, FAS): −6.23 (10.43) mmHg | Daytime Mean SBP (ABPM) CFB to EoT, Mean (SD) (25 mg BID, FAS): −9.08 (17.41) mmHg | Nighttime Mean DBP (ABPM) CFB to EoT, Mean (SD) (25 mg BID, FAS): −4.13 (10.86) mmHg | Nighttime Mean SBP (ABPM) CFB to EoT, Mean (SD) (25 mg BID, FAS): −5.96 (15.37) mmHg | LSM Δ with Placebo, 24-hr DBP (ABPM, ANCOVA) (50 mg QD, End of Treatment, FAS post-hoc): −2.74 mmHg
